Measured values from patent EP3168210A1, “CRYSTALLINE FORMS OF ENTINOSTAT” (SANDOZ AG, priority 2015, dated 2017).

Columns and labels:
[1] = Compression study (hydraulic press, polymorphic form after compression); assay type: physicochemical; details: about 100 mg powder compressed to 5 tonnes/cm^2, held for 1h; slight crystallinity decrease
Experimental: The compression study was performed using a Specac hydraulic press. A sample powder (approx. 100mg) is loaded into a metal die (ring shaped metal holder). A snugly fitted billet (a cylinder-shaped metal rod) is then placed into the die, on top of the powder sample. The die and billet assembly is then placed into the hydraulic press and compressed to a pressure of 5 tonnes/cm^2 and held under that pressure for 1h. The billet is then removed and the disc extracted from the die.

[2] = Water solubility of crystal forms measured by HPLC; assay type: physicochemical; details: 25°C
Experimental: The water solubilities at 25°C of different crystal forms of Entinostat have been measured by HPLC and are set out in the following table: […]

Structure (SMILES) | polymorphic form after compression [1] | Water solubility [2] [µg/mL]
Nc1ccccc1NC(=O)c1ccc(CNC(=O)OCc2cccnc2)cc1 [Form D, (pyridin-3-yl)methyl 4-(2-aminophenylcarbamoyl)benzylcarbamate] | maintain the same polymorphic form | 130
Nc1ccccc1NC(=O)c1ccc(CNC(=O)OCc2cccnc2)cc1 [Form B, (pyridin-3-yl)methyl 4-(2-aminophenylcarbamoyl)benzylcarbamate] | maintain the same polymorphic form | 28
Nc1ccccc1NC(=O)c1ccc(CNC(=O)OCc2cccnc2)cc1 [Form A, (pyridin-3-yl)methyl 4-(2-aminophenylcarbamoyl)benzylcarbamate] | maintain the same polymorphic form | 48
